Test: Determination of storage stability of crystalline material (HPLC analysis after storage)
Type: physicochemical
Method: Determination of Storage Stability of Crystalline Material of Formula I
A crystalline and an amorphous sample of (6R,7R)-7-[(Z)-2-(5-Amino-[1,2,4]thiadiazol-3yl)-2-hydroxyimino-acetylamino1-8-oxo-3-[(E)-(R)-1′-(5-methyl-2-oxo-1,3]dioxol-4-ylmethoxycarbonyl)-2-oxo-[1,3′]bipyrrolidinyl-3-ylidenemethyl]-8-oxo-5-thia-1-aza-bicyclo[4.2.0]oct-2-ene-2-carboxylic acid were stored at different temperatures for 24 hours, 28 days and for 3 months.

[1] = 3 months, 5° C. (as compared to −20° C.)
[2] = storage for 3 months, Temperature 5, Rel. Humidity Ca. 58%
[3] = storage for 3 months, Temperature 25, Rel. Humidity Ca. 58%
[4] = storage for 3 months, −20° C., Rel. Humidity Not defined
[5] = storage for 24 hours, Temperature 5, Rel. Humidity Ca. 58%
[6] = storage for 24 hours, Temperature 25, Rel. Humidity Ca. 58%
[7] = storage for 24 hours, Temperature 40, Rel. Humidity Ca. 75%
[8] = storage for 24 hours, Temperature 60, Rel. Humidity Ca. 75%
[9] = storage for 24 hours, −20° C., Rel. Humidity Not defined
[10] = storage for 28 days, Temperature 5, Rel. Humidity Ca. 58%
[11] = storage for 28 days, Temperature 25, Rel. Humidity Ca. 58%
[12] = storage for 28 days, −20° C., Rel. Humidity Not defined

decomposition on storage (in words) [1]	decomposition on storage (in words) (3 months, 25° C.)	decomposition on storage (in words) (28 days, 5° C.)	Area-% (HPLC) [2] [Area-%]	Area-% (HPLC) [3] [Area-%]	Area-% (HPLC) [4] [Area-%]	Area-% (HPLC) [5] [Area-%]	Area-% (HPLC) [6] [Area-%]	Area-% (HPLC) [7] [Area-%]	Area-% (HPLC) [8] [Area-%]	decomposition on storage (in words) (storage for 24 hours, temperatures above 5° C.)	Area-% (HPLC) [9] [Area-%]	Area-% (HPLC) [10] [Area-%]	Area-% (HPLC) [11] [Area-%]	Area-% (HPLC) [12] [Area-%]	decomposition on storage (in words) (28 days, 25° C.)	stability on storage (in words) (storage for 24 hours, whole temperature range of investigation)	SMILES
slight decomposition	strongly decreased	decreased	96.9	91.4	97.6	99.05	98.85	98.25	96.67	decomposed significantly	99.04	98.1	96.4	98.6	–	–	Cc1oc(=O)oc1COC(=O)N1CC[C@@H](N2CC/C(=C\C3=C(C(=O)O)N4C(=O)[C@@H](NC(=O)/C(=N\O)c5nsc(N)n5)[C@H]4SC3)C2=O)C1 [amorphous compound I, (6R,7R)-7-[(Z)-2-(5-Amino-[1,2,4]thiadiazol-3yl)-2-hydroxyimino-acetylamino1-8-oxo-3-[(E)-(R)-1′-(5-methyl-2-oxo-1,3]dioxol-4-ylmethoxycarbonyl)-2-oxo-[1,3′]bipyrrolidinyl-3-ylidenemethyl]-8-oxo-5-thia-1-aza-bicyclo[4.2.0]oct-2-ene-2-carboxylic acid]
no decomposition	slight decomposition	–	93.9	93.4	94	95.7	95.75	95.45	95.57	–	95.77	95.2	94.9	95.3	slight decomposition	very good stability	Cc1oc(=O)oc1COC(=O)N1CC[C@@H](N2CC/C(=C\C3=C(C(=O)O)N4C(=O)[C@@H](NC(=O)/C(=N\O)c5nsc(N)n5)[C@H]4SC3)C2=O)C1.Cl [crystalline compound II, (6R,7R)-7-[(Z)-2-(5-Amino-[1,2,4]thiadiazol-3-yl) -2-hydroxyimino-acetylamino]-8-oxo-3-[(E)-(R)-1′-(5-methyl-2-oxo-[1,3]dioxol-4-ylmethoxycarbonyl)-2-oxo-[1,3′]bipyrrolidinyl-3-ylidenemethyl]-8-oxo5-thia-1-aza-bicyclo[4.2.0]oct-2-ene-2-carboxylic acid Hydrochloride Trihydrate]
